Measurements as given in ChEMBL document CHEMBL1156361, “Structure-activity relationship of in vitro antiviral and cytotoxic activity of semisynthetic analogues of scopadulane diterpenes” (J Nat Prod, 2001).
In brackets after ≈: the same amount, converted by molar mass. Activity calls are given as the source filed them. No cut-off for these calls is given here.

What was measured:
[1] = Cytotoxicity against bovine Bon-Fib cells after 48 hrs; type: cell-based, Bos taurus; settings: cattle
CHO = test: Cytotoxicity against CHO cells after 48 hrs; type: cell-based, Cricetulus griseus; settings: chinese hamster
Human alphaherpesvirus 2 [2] = test: Antiviral activity against Herpes simplex virus 2 infected in african green monkey Vero cells assessed as ratio of the viral titers in absence to presence of drug after 48 hrs by end-point titration technique; type: functional
Vero = test: Cytotoxicity against african green monkey Vero cells by end-point titration technique; type: cell-based; settings: chlorocebus sabaeus
Human alphaherpesvirus 2 [3] = test: Antiviral activity against Herpes simplex virus 2 infected in african green monkey Vero cells assessed as maximal nontoxic dose that showed the highest viral reduction factor after 48 hrs by end-point titration technique; type: functional
HeLa = test: Cytotoxicity against human HeLa cells after 48 hrs; type: functional
HEp-2 = test: Cytotoxicity against human Hep2 cells after 48 hrs; type: functional
Human alphaherpesvirus 2 [4] = test: Antiviral activity against Herpes simplex virus 2 infected in african green monkey Vero cells assessed inhibition of virus-induced effect after 48 hrs by MTT assay; type: functional, organism-based; settings: Human alphaherpesvirus 2, Vero
[5] = Therapeutic index, ratio of CC50 for african green monkey Vero cells to IC50 for Herpes simplex virus 2 by MTT assay; type: cell-based; settings: read-out: Ratio CC50/IC50
[6] = Cytotoxicity against african green monkey Vero cells by MTT assay; type: cell-based; settings: chlorocebus sabaeus

| SMILES | CC100 [1] | CC100 (CHO) | Ratio (Human alphaherpesvirus 2 [2]) | CC100 (Vero) | Activity (Human alphaherpesvirus 2 [3]) | CC100 (HeLa) | CC100 (HEp-2) | IC50 (Human alphaherpesvirus 2 [4]) | selectivity ratio [5] | CC50 [6] |
| --- | --- | --- | --- | --- | --- | --- | --- | --- | --- | --- |
| COC(=O)CC(=O)O[C@@H]1C[C@@H]2CC[C@H]3C(C)(C)CCC[C@]3(C)[C@]23CC[C@]1(C)C3 [METHYL THYRSIFLORIN A] | 28 µg/mL | 28 µg/mL | 5 | 30 µg/mL | 15 µg/mL | – | – | – | – | – |
| CC1(C)CCC[C@@]2(C)[C@H]1C[C@H](O)[C@H]1C[C@@H](O)[C@]3(C)CC[C@]12C3 [THYRSIFLORIN C] | 60 µg/mL | 45 µg/mL | inactive | 30 µg/mL | inactive | – | – | – | – | – |
| CC(=O)O[C@H]1C[C@H]2C(C)(C)CCC[C@]2(C)[C@@]23CC[C@](C)(C2)[C@H](OC(C)=O)C[C@H]13 [THYRSIFLORIN C DIACETATE] | 60 µg/mL | 40 µg/mL | 5 | 50 µg/mL | 10 µg/mL | – | – | – | – | – |
| CC(=O)O[C@H]1C[C@H]2C(C)(C)CCC[C@]2(C)[C@@]23CC[C@](C)(C2)[C@@H](O)C[C@H]13 | – | – | 10 | 50 µg/mL | 25 µg/mL | – | – | – | – | – |
| COC(=O)CC(=O)O[C@@H]1C[C@@H]2[C@@H](OC(C)=O)C[C@H]3C(C)(C)CCC[C@]3(C)[C@]23CC[C@]1(C)C3 [METHYL THYRSIFLORIN B ACETATE] | 60 µg/mL | 30 µg/mL | 5 | 30 µg/mL | 15 µg/mL | 30 µg/mL | 30 µg/mL | – | – | – |
| Nc1nc2c(ncn2COCCO)c(=O)[nH]1 [ACYCLOVIR] | – | – | 100000 | > 600 µg/mL | 6 µg/mL | – | – | 4.21 mg/L (≈ 18.7 µM) | – | – |
| CC1(C)CCC[C@@]2(C)[C@H]1CCC1=CC(=O)[C@@]3(C)C[C@@]12CC3=O | – | – | 10 | 60 µg/mL | 30 µg/mL | – | – | – | – | – |
| CC1(C)CCC[C@@]2(C)[C@H]1CC[C@@]13CC(=O)[C@]4(C)CC1[C@]32C4 | – | – | 10 | 40 µg/mL | 20 µg/mL | – | – | – | – | – |
| CC1(C)CCC[C@@]2(C)[C@H]1CC[C@H]1C[C@@H](O)[C@]3(C)CC[C@]12C3 | – | – | 100 | 32 µg/mL | 7.5 µg/mL | – | – | 16.5 mg/L (≈ 56.8 µM) | 1.25 | 19.5 mg/L (≈ 67.1 µM) |
| CC1(C)CCC[C@@]2(C)[C@H]1C[C@@H](O)[C@@H]1CC(=O)[C@]3(C)CC[C@]12C3 | – | – | 100 | 60 µg/mL | 30 µg/mL | – | – | 42.1 mg/L (≈ 138 µM) | 0.66 | 27.8 mg/L (≈ 91.3 µM) |
| CC1(C)CCCC2=C1CC[C@@]13CC[C@](C)(C[C@@]21C)C(=O)C3 | – | – | inactive | 35 µg/mL | inactive | – | – | – | – | – |
| CC1(C)CCC[C@@]2(C)[C@H]1C[C@@H](O)C1=CC(=O)[C@]3(C)CC[C@]12C3 | 10 µg/mL | 20 µg/mL | 10 | 28 µg/mL | 14 µg/mL | – | – | – | – | – |
| CC1(C)CCC[C@@]2(C)[C@H]1CCC1=CC(=O)[C@]3(C)CC[C@]12C3 | – | – | 100 | 40 µg/mL | 20 µg/mL | – | – | 32.4 mg/L (≈ 113 µM) | 0.72 | 23.2 mg/L (≈ 81 µM) |
| CC1(C)CCC[C@@]2(C)[C@H]1CC[C@H]1CC(=O)[C@]3(C)CC[C@]12C3 | 24 µg/mL | 24 µg/mL | 100 | 28 µg/mL | 14 µg/mL | – | – | 21 mg/L (≈ 72.9 µM) | 0.81 | 16.7 mg/L (≈ 57.9 µM) |
| CC1(C)CCC[C@@]2(C)[C@H]1C[C@H](O)[C@H]1CC(=O)[C@]3(C)CC[C@]12C3 | – | – | 5 | 48 µg/mL | 10 µg/mL | – | – | – | – | – |
